Consider three molecules from patent publication US20210115036A1, “AZAINDOLES AND METHODS OF USE THEREOF” (GOLDFINCH BIO, INC., priority 2017, published 2021).

For this assay, the target named is T1, human TRPC5 (Homo sapiens, UniProt Q9UL62).
T1 construct: expressed in transfected cells; host or cells: HEK 293
T1 sequence (Q9UL62 1-973): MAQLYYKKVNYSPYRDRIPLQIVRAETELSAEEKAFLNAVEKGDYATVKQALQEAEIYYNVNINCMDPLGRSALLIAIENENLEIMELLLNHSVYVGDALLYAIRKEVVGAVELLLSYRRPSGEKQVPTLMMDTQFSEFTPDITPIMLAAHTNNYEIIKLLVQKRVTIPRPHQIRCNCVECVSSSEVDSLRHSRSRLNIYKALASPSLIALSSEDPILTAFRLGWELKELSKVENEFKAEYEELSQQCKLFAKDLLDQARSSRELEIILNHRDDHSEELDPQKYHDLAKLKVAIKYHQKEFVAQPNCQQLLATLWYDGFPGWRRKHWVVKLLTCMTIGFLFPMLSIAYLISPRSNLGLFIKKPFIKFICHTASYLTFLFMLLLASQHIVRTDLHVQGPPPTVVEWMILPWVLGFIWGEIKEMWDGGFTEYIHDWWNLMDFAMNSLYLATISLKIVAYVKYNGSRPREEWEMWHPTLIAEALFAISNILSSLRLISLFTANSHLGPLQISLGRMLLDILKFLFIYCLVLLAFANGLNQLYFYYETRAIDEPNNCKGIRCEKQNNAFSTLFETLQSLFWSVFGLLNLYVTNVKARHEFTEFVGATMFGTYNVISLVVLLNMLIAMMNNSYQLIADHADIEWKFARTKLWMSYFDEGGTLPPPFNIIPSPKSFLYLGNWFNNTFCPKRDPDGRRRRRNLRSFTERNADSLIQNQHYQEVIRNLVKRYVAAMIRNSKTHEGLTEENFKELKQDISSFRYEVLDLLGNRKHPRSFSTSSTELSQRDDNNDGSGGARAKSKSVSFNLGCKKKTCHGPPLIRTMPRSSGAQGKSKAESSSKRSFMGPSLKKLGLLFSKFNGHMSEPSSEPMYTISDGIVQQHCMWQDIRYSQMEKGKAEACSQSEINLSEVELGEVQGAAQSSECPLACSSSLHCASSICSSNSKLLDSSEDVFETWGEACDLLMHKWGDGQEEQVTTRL
Description: Automated patch clamp assay (QPatch), current block after stimulation with rosiglitazone. It counts as cell-based. The settings on record: HEK293 cells overexpressing TRPC5, whole cell automated patch, 100 mV, 7-substituted 7-azaindoles, read-out: TRPC5 IC50 100 mV. The method, then: HEK 293 cells expressing human TRPC5 were harvested, re-suspended in serum free medium, and added to the automated platform and used within 2-3 hours. Internal and external physiological solutions were freshly prepared prior to the assay. The external solution contained: 145 mM NaCl, 4 mM KCl, 2 mM CaCl2), 1 mM MgCl2, 10 mM HEPES, 10 mM glucose, pH 7.4 with NaOH and 300 mOsm/L. The internal solution contained 120 mM L-aspartic acid, 120 mM CsOH.H2O, 20 mM CsCl, 2 mM MgCl2, 8.8 mM CaCl2), 10 mM EGTA, 10 mM HEPES, 10 mM Glucose, 0.1 mM GTP and 2 mM Na2ATP; pH 7.2 with CsOH and 290 mOsm/L. The free internal Ca2+ concentration was buffered to 1 μM.
The automated electrophysiological platform QPatch 16 from Sophion (Denmark) was used to carry out the compounds profiling. The series resistance and quality of seals were continuously monitored during the experiments. Data was analyzed using Sophion QPatch assay software 5.6 (Odense). IC50 values were calculated using a least squares regression algorithm (Hill equation).
To monitor the ion currents, a voltage ramp from −100 mV to +100 mV, over 300 ms, was applied every 10 seconds, from a holding potential of −60 mV.
After recording for a minimum of 60 seconds control period, Rosiglitazone (30 uM), was applied to activate the channel.

Each structure is given as a SMILES string.

In the case of `CC(C)(C)c1cc2cccn(Cc3cccnc3)c-2n1` [drawing 134], the IC50 is 14.4 µM.

Take `CC(C)(C)c1cc2cccn(C[C@H]3CC[C@H](C)CC3)c-2n1` [drawing 137]: the IC50 worked out at 22.2 µM.

For `CC(C)(C)c1cc2cccn(C[C@H]3CC[C@H](C)CC3)c-2n1` [drawing 138], the IC50 worked out at 24.5 µM.
